pKi: −log10 of the molar value. “Also recorded” adds a separate entry of the source.
Experiments:
mice [1] = experiment: Acute thermal antinociception (tail-flick, modified tetrad assay); assay type: in vivo; details: THC 10-56 mg/kg, ax-CBN 56-320 mg/kg
mice [2] = experiment: Locomotion measured as ambulatory time (modified tetrad assay); assay type: in vivo; details: for Locomotion (in words): modified tetrad assay, THC 10-56 mg/kg, ax-CBN 56-320 mg/kg
C57bl/6j mice = experiment: Reduction of body temperature (hypothermia); details: for Effect on body temperature (in words): mice, THC 10-56 mg/kg, ax-CBN 56-320 mg/kg
cannabinoid receptors = details: in a variety of studies, cited from earlier work
[3] = Locomotion measured as ambulatory time (modified tetrad assay); assay type: in vivo, mice; details: C57bl/6j, mouse, in vivo; Table 4; read-out: Hypolocomotion ED50 ((95% CL)
[4] = Reduction of body temperature (hypothermia); details: C57bl/6j, mouse, in vivo, Body Temp. ED50 ((95% CL) mg/kg), Table 4; hypothermia
[5] = tested on: mice trained to discriminate 10 mg/kg THC; details: rimonabant 0.32 and 1 mg/kg versus vehicle; cited from earlier work

Compound: 10-methyl-CBN [ax-CBN]
- Acute thermal antinociception (in words) (mice [1]): dose-relatedly produced thermal antinociception
- Hypolocomotion ED50 ((95% CL) (mice [2]; Table 4): 290.20 mg/kg
- Locomotion (in words) (mice [2]): decreased locomotion
- Body Temp. ED50 ((95% CL) (C57bl/6j mice; Table 4, hypothermia): 308.98 mg/kg
- Effect on body temperature (in words) (C57bl/6j mice): hypothermia

Compound: CCCCCc1cc(O)c2c(c1)OC(C)(C)c1ccc(C)cc1-2 [CBN, cannabinol]
- Binding affinity for cannabinoid receptors (cannabinoid receptors): significantly higher

Compound: CCCCCc1cc(O)c2c(c1)OC(C)(C)[C@@H]1CCC(C)=C[C@@H]21 [THC, (−)-trans-Δ^9-tetrahydrocannabinol]
- pKi (cannabinoid receptors; read-out: Binding affinity for cannabinoid receptors): 7.40 to 7.70
- Acute thermal antinociception (in words) (mice [1]): dose-relatedly produced thermal antinociception
- ED50 [3]: 25.5 mg/kg
- Locomotion (in words) (mice [2]): decreased locomotion
- ED50 [4]: 17.5 mg/kg
- Effect on body temperature (in words) (C57bl/6j mice): robust depression of body temperature; also recorded: hypothermia

Compound: Cc1c(C(=O)NN2CCCCC2)nn(-c2ccc(Cl)cc2Cl)c1-c1ccc(Cl)cc1 [rimonabant]
- Effect on THC dose effect in drug discrimination (in words) [5]: antagonizes the dose effect of THC

Reference: patent US12569503B2, “Methods and compositions for substituted axially-chiral cannabinol analogs” (University of Florida Research Foundation, Inc., priority 2019, dated 2026)
